Assay results published in patent US10173991B2, “Sulfone amide linked benzothiazole inhibitors of endothelial lipase” (BRISTOL-MYERS SQUIBB COMPANY, priority 2014, dated 2019).
pIC50: −log10 of the molar value. Read-outs that look alike come from different tables or passages of the source.

Target: Endothelial lipase (EL) (Homo sapiens (Human), UniProt Q9Y5X9)
Experiment: Endothelial lipase (EL) enzymatic assay with fluorescent substrate A10070 in DMPG vesicles
Type: biochemical
Outline: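 EL from conditioned medium of HT-1080 cells engineered to overexpress endogenous EL; HL partially purified from conditioned medium of HL-overexpressing COS cells. Enzyme preincubated with compound 30 min at 37° C in 50 mM HEPES pH 8.0, 50 mM NaCl, 1 mM CaCl2; DMPG vesicles carrying FRET substrate (0.11 mole fraction) then added.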

Endothelial lipase (EL), sequence (Q9Y5X9 21-500): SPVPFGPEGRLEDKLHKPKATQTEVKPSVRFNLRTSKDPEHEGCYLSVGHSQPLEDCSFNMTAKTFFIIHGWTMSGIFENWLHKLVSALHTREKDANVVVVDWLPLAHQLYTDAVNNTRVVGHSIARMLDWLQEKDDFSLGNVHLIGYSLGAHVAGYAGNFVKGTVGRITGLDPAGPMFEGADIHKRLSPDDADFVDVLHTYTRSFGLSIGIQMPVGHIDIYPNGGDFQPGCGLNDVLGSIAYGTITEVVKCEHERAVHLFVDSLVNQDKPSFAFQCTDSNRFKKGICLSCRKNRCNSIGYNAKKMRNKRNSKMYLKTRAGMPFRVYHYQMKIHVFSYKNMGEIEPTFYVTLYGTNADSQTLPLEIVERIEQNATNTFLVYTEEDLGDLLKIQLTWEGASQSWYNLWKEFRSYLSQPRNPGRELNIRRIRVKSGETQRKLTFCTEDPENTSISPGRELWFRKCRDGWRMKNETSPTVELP

SMILES	pIC50	pIC50 (EL from conditioned media of HT-1080 cells, 30 min preincubation at 37° C.)
COCCS(=O)(=O)C(C(=O)NCC(=O)NC1CC1)c1nc2cc(F)c(-c3ccc4c(=O)n(C)ccc4c3)cc2s1 (stereo not shown) [Example 153, N-[(cyclopropyl-carbamoyl)methyl]-2-[5-fluoro-6-(2-methyl-1-oxo-1,2-dihydro-isoquinolin-6-yl)-1,3-benzothiazol-2-yl]-2-(2-methoxyethane-sulfonyl) acetamide]	8.52	–
COCCS(=O)(=O)C(C(=O)NCC(=O)NC1CC1)c1nc2cc(F)c(-c3cccc(-n4cccn4)c3)cc2s1 (stereo not shown) [Example 141, N-[(cyclopropyl-carbamoyl)methyl]-2-{5-fluoro-6-[3-(1H-pyrazol-1-yl)phenyl]-1,3-benzothiazol-2-yl}-2-(2-methoxyethane-sulfonyl) acetamide]	8.70	–
CN(C)C(=O)Nc1ccc(-c2cc3sc(C(C(=O)NCC(=O)NC4CC4)S(=O)(=O)CCC(F)(F)F)nc3cc2F)cc1 (stereo not shown) [Example 6, N-[(cyclopropyl-carbamoyl)methyl]-2-(6-{4-[(dimethyl-carbamoyl)amino]phenyl}-5-fluoro-1,3-benzothiazol-2-yl)-2-(3,3,3-trifluoropropane-sulfonyl) acetamide]	8.52	–
O=C(CNC(=O)C(c1nc2cc(-c3ccc(NC(=O)OCc4ccccc4)nc3)c(F)cc2s1)S(=O)(=O)CCC(F)(F)F)NC1CC1 (stereo not shown) [Example 543, benzyl N-{5-[2-({[(cyclopropyl-carbamoyl)methyl]carbamoyl}(3,3,3-trifluoropropane-sulfonyl)methyl)-6-fluoro-1,3-benzothiazol-5-yl]pyridin-2-yl} carbamate]	8.22	–
COC(=O)Nc1ccc(-c2ccc3nc(C(C(=O)NCC(=O)NC4CC4)S(=O)(=O)CCC(F)(F)F)sc3c2)c(C)c1 (stereo not shown) [Example 26]	8.15	–
COCCS(=O)(=O)C(C(=O)NCC(=O)NC1CC1)c1nc2cc(F)c(-c3ccc4c(cnn4C)c3)cc2s1 (stereo not shown) [Example 152, N-[(cyclopropyl-carbamoyl)methyl]-2-[5-fluoro-6-(1-methyl-1H-indazol-5-yl)-1,3-methoxyethane-sulfonyl) acetamide]	8.52	–
COCCS(=O)(=O)C(C(=O)NCC(=O)NC1CC1)c1nc2cc(-c3cccc(-c4cc[nH]n4)c3)c(F)cc2s1 (stereo not shown) [Example 129, N-[(cyclopropyl-carbamoyl)methyl]-2-{6-fluoro-5-[3-(1H-pyrazol-3-yl)phenyl]-1,3-benzothiazol-2-yl}-2-(2-methoxyethane-sulfonyl) acetamide]	7.92	–
O=C(CNC(=O)C(c1nc2c(F)cc(-c3ccc4c(c3)C(=O)NC4)cc2s1)S(=O)(=O)c1ccc(F)cc1)NC1CC1 (stereo not shown) [Example 477, N-[(cyclopropyl-carbamoyl)methyl]-2-[4-fluoro-6-(3-oxo-2,3-dihydro-1H-isoindol-5-yl)-1,3-benzothiazol-2-yl]-2-(4-fluorobenzene-sulfonyl)acetamide]	7.17	–
COc1ncc(-c2cc3sc(C(C(=O)NCC(=O)NC4CC4)S(=O)(=O)C(C)C)nc3cc2C)cc1F (stereo not shown) [Example 211, N-[(cyclopropyl-carbamoyl)methyl]-2-[6-(5-fluoro-6-methoxypyridin-3-yl)-5-methyl-1,3-benzothiazol-2-yl]-2-(propane-2-sulfonyl) acetamide]	7.85	–
Cc1cc(-c2cc3nc(C(C(=O)NCC(=O)NC4CC4)S(C)(=O)=O)sc3cc2F)cnn1 (stereo not shown) [Example 361, N-[(cyclopropyl-carbamoyl)methyl]-2-[6-fluoro-5-(6-methylpyridazin-4-yl)-1,3-benzothiazol-2-yl]-2-methanesulfonyl-acetamide]	7.59	–
COCCS(=O)(=O)C(C(=O)NCC(=O)NC1(C)CCC1)c1nc2cc(-c3ccc(F)nc3)ccc2s1 (stereo not shown) [Example 387, 2-[5-(6-fluoropyridin-3-yl)-1,3-benzothiazol-2-yl]-2-(2-methoxyethane-sulfonyl)-N-{[(1-methylcyclobutyl)carbamoyl]methyl} acetamide]	7.55	–
COCCS(=O)(=O)C(C(=O)NCC(=O)NC1CC1)c1nc2cc(F)c(-c3ccc(F)nc3)cc2s1 (stereo not shown) [Example 171, N-[(cyclopropyl-carbamoyl)methyl]-2-[5-fluoro-6-(6-fluoropyridin-3-yl)-1,3-benzothiazol-2-yl]-2-(2-methoxyethane-sulfonyl) acetamide]	7.57	–
COCCS(=O)(=O)C(C(=O)NCC(=O)NC1CC1)c1nc2cc(Cl)c(-c3cncnc3)cc2s1 (stereo not shown) [Example 112, 2-[5-chloro-6-(pyrimidin-5-yl)-1,3-benzothiazol-2-yl]-N-[(cyclopropyl-carbamoyl)methyl]-2-(2-methoxyethane-sulfonyl)acetamide]	7.01	–
COCCS(=O)(=O)C(C(=O)NCC(=O)NC1CC1)c1nc2cc(-c3ccnc(F)c3)ccc2s1 (stereo not shown) [Example 76, N-[(cyclopropyl-carbamoyl)methyl]-2-[5-(2-fluoropyridin-4-yl)-1,3-benzothiazol-2-yl]-2-(2-methoxyethane-sulfonyl)acetamide]	7.49	–
COCCS(=O)(=O)C(C(=O)NCC(=O)NC1CC1)c1nc2cc(-c3cccc(F)n3)ccc2s1 (stereo not shown) [Example 89, N-[(cyclopropyl-carbamoyl)methyl]-2-[5-(6-fluoropyridin-2-yl)-1,3-benzothiazol-2-yl]-2-(2-methoxyethane-sulfonyl) acetamide]	6.77	–
COC(=O)N(C)c1ccc(-c2ccc3nc(C(C(=O)NCC(=O)NC4CC4)S(C)(=O)=O)sc3c2)cc1 (stereo not shown) [Example 23, methyl N-{4-[2-({[(cyclopropyl-carbamoyl)methyl]carbamoyl} (methanesulfonyl)methyl)-1,3-benzothiazol-6-yl]phenyl}-N-methylcarbamate]	7.85	–
COCCS(=O)(=O)C(C(=O)NCC(=O)Nc1ccccc1)c1nc2ccc(-c3ccc(F)nc3)cc2s1 (stereo not shown) [Example 383, 2-[6-(6-fluoropyridin-3-yl)-1,3-benzothiazol-2-yl]-2-(2-methoxyethane-sulfonyl)-N-[(phenyl-carbamoyl)methyl]acetamide]	8.52	–
COC(=O)Nc1ccc(-c2cc3sc(C(C(=O)NCC(=O)NC4CC4)S(=O)(=O)c4ccc(F)cc4)nc3cc2F)cc1 (stereo not shown) [Example 478, methyl N-{4-[2-({[(cyclopropyl-carbamoyl)methyl]carbamoyl}(4-fluorobenzene-sulfonyl)methyl)-5-fluoro-1,3-benzothiazol-6-yl]phenyl}carbamate]	8.70	–
COCCS(=O)(=O)C(C(=O)NCC(=O)NC1COC1)c1nc2cc(-c3ccc(F)nc3)ccc2s1 (stereo not shown) [Example 386, 2-[5-(6-fluoropyridin-3-yl)-1,3-benzothiazol-2-yl]-2-(2-methoxyethane-sulfonyl)-N-{[(oxetan-3-yl)carbamoyl]methyl} acetamide]	7.60	–
COC(C)(C)CNC(=O)c1ccc(-c2ccc3nc(C(C(=O)NCC(=O)NC4CC4)S(C)(=O)=O)sc3c2)cc1 (stereo not shown) [Example 571, 4-[2-({[(cyclopropyl-carbamoyl)methyl]carbamoyl} (methanesulfonyl)methyl)-1,3-benzothiazol-6-yl]-N-(2-methoxy-2-methylpropyl) benzamide]	7.92	–
CS(=O)(=O)C(C(=O)NCC(=O)NC1CC1)c1nc2cc(F)c(-c3ccc(NC(=O)OCc4ccccn4)cc3)cc2s1 (stereo not shown) [Example 510, Pyridin-2-ylmethyl (4-(2-(2-((2-(cyclopropylamino)-2-oxoethyl)amino)-1-(methylsulfonyl)-2-oxoethyl)-5-fluorobenzo[d]thiazol-6-yl)phenyl)carbamate]	–	8.89
COCCS(=O)(=O)C(C(=O)NCC(=O)NC1CC1)c1nc2cc(F)c(-c3ccc(C4CC4)nc3)cc2s1 (stereo not shown) [Example 159, N-[(cyclopropyl-carbamoyl)methyl]-2-[6-(6-cyclopropyl-pyridin-3-yl)-5-fluoro-1,3-benzothiazol-2-yl]-2-(2-methoxyethane-sulfonyl) acetamide]	7.92	–
CS(=O)(=O)C(C(=O)NCC(=O)NC1CC1)c1nc2cc(F)c(-c3ccc(C(N)=O)c(Cl)c3)cc2s1 (stereo not shown) [Example 328, 2-chloro-4-[2-({[(cyclopropyl-carbamoyl)methyl]carbamoyl} (methanesulfonyl)methyl)-5-fluoro-1,3-benzothiazol-6-yl]benzamide]	7.66	–
COCCS(=O)(=O)C(C(=O)NCC(=O)NC1CC1)c1nc2cc(-c3cnc(F)c(C)c3)ccc2s1 (stereo not shown) [Example 78, N-[(cyclopropyl-carbamoyl)methyl]-2-[5-(6-fluoro-5-methylpyridin-3-yl)-1,3-benzothiazol-2-yl]-2-(2-methoxyethane-sulfonyl) acetamide]	7.42	–
Cn1ncc2ccc(-c3cc4sc(C(C(=O)NCC(=O)NC5CC5)S(C)(=O)=O)nc4cc3F)cc21 (stereo not shown) [Example 196, N-[(cyclopropyl-carbamoyl)methyl]-2-[5-fluoro-6-(1-methyl-1H-indazol-6-yl)-1,3-benzothiazol-2-yl]-2-methanesulfonyl-acetamide]	9.00	–
CS(=O)(=O)C(C(=O)NCC(=O)NC1CC1)c1nc2cc(F)c(-c3ccc(C#N)nc3)cc2s1 (stereo not shown) [Example 199, 2-[6-(6-cyanopyridin-3-yl)-5-fluoro-1,3-benzothiazol-2-yl]-N-[(cyclopropyl-carbamoyl)methyl]-2-methanesulfonyl-acetamide]	7.62	–
COC(=O)Nc1ccc(-c2cc3sc(C(C(=O)NCC(=O)NC4CC4)S(C)(=O)=O)nc3cc2F)cc1F (stereo not shown) [Example 118, methyl N-{4-[2-({[(cyclopropyl-carbamoyl)methyl]carbamoyl} (methanesulfonyl)methyl)-5-fluoro-1,3-benzothiazol-6-yl]-2-fluorophenyl} carbamate]	7.96	–
COCCS(=O)(=O)C(C(=O)NCC(=O)NC1CC1)c1nc2cc(C)c(-c3ccn(C)c(=O)c3)cc2s1 (stereo not shown) [Example 172, N-[(cyclopropyl-carbamoyl)methyl]-2-(2-methoxyethane-sulfonyl)-2-[5-methyl-6-(1-methyl-2-oxo-1,2-dihydropyridin-4-yl)-1,3-benzothiazol-2-yl]acetamide]	7.57	–
